Reference: patent US4225586A, “Antibiotic SB-72310” (Takeda Chemical Industries, Ltd., priority 1978, dated 1980)
Structures can show the parent of a compound that is named as a salt.

Assays:
mice = test: Acute toxicity, intravenous; type: in vivo
Experimental: The acute toxicity of the sodium salt of Antibiotic SB-72310 is low, with no deaths being encountered when 500 mg/kg of the salt was administered to mice by the intravenous route.

Solubility in solvents = type: physicochemical
[1] = Stability in aqueous solution; type: physicochemical
Experimental: 12. Stability: Stable in aqueous solution in the range of pH 3 to 7 at 60° C. for 10 minute heating; unstable over pH 8.5.
10. Stability: Stable in aqueous solution in the range of pH 3 to 7 at 60° C. for 10 minute heating; unstable over pH 8.5.

[2] = test system: Alcaligenes faecalis IFO 13111; test: Antimicrobial spectrum, paper disk method; type: cell-based; conditions: IFO13111, 25 μl of 10 mg/ml in 8 mm paper disks, Trypticasesoy-broth-agar, read-out: Inhibition diameter
Experimental: (§1) The biological characteristics of SB-72310 are as follows.
(§2) Antimicrobial spectra of SB-72310(Inhibition diameter (mm)
(§3) by paper disk method) (25 μl of test solution of 10 mg/ml
(§4) is absorbed in paper disks of 8 mm diameter)
(§5) Medium = Trypticasesoy-broth-agar

Bacillus cereus IFO 3466 = test: Antimicrobial spectrum, paper disk method; type: cell-based; conditions: IFO3466, 25 μl of 10 mg/ml in 8 mm paper disks, Trypticasesoy-broth-agar, read-out: Inhibition diameter
Experimental: as §1, §2, §3, §4, §5

[3] = test system: Bacillus subtilis IFO 3513; test: Antimicrobial spectrum, paper disk method; type: cell-based; conditions: IFO3513, 25 μl of 10 mg/ml in 8 mm paper disks, Trypticasesoy-broth-agar, read-out: Inhibition diameter
Experimental: as §1, §2, §3, §4, §5

[4] = test system: Comamonas terrigena IFD 12685; test: Antimicrobial spectrum, paper disk method; type: cell-based; conditions: IFD12685, 25 μl of 10 mg/ml in 8 mm paper disks, Trypticasesoy-broth-agar, read-out: Inhibition diameter
Experimental: as §1, §2, §3, §4, §5

[5] = test system: Escherichia coli NIHJ JC-2; test: Antimicrobial spectrum, paper disk method; type: cell-based; conditions: NIHJJC2, 25 μl of 10 mg/ml in 8 mm paper disks, Trypticasesoy-broth-agar, read-out: Inhibition diameter
Experimental: as §1, §2, §3, §4, §5

[6] = test system: Klebsiella pneumoniae IFO 3318; test: Antimicrobial spectrum, paper disk method; type: cell-based; conditions: IFO3318, 25 μl of 10 mg/ml in 8 mm paper disks, Trypticasesoy-broth-agar, read-out: Inhibition diameter
Experimental: as §1, §2, §3, §4, §5

[7] = test system: Proteus mirabilis IFO 3849; test: Antimicrobial spectrum, paper disk method; type: cell-based; conditions: IFO3849, 25 μl of 10 mg/ml in 8 mm paper disks, Trypticasesoy-broth-agar, read-out: Inhibition diameter
Experimental: as §1, §2, §3, §4, §5

[8] = test system: Proteus vulgaris IFO 3045; test: Antimicrobial spectrum, paper disk method; type: cell-based; conditions: IFO3045, 25 μl of 10 mg/ml in 8 mm paper disks, Trypticasesoy-broth-agar, read-out: Inhibition diameter
Experimental: as §1, §2, §3, §4, §5

[9] = test system: Pseudomonas fluorescens IFO 3081; test: Antimicrobial spectrum, paper disk method; type: cell-based; conditions: IFO3081, 25 μl of 10 mg/ml in 8 mm paper disks, Trypticasesoy-broth-agar, read-out: Inhibition diameter
Experimental: as §1, §2, §3, §4, §5

[10] = test system: Salmonella typhimurium IFO 12529; test: Antimicrobial spectrum, paper disk method; type: cell-based; conditions: Salmonella enterica, 25 μl of 10 mg/ml in 8 mm paper disks, Trypticasesoy-broth-agar, read-out: Inhibition diameter
Experimental: as §1, §2, §3, §4, §5

Sarcina lutea IFO 3232 = test: Antimicrobial spectrum, paper disk method; type: cell-based; conditions: Micrococcus luteus, IFO3232, 25 μl of 10 mg/ml in 8 mm paper disks, Trypticasesoy-broth-agar, read-out: Inhibition diameter
Experimental: as §1, §2, §3, §4, §5

[11] = test system: Serratia marcescens IFO 12648; test: Antimicrobial spectrum, paper disk method; type: cell-based; conditions: IFO12648, 25 μl of 10 mg/ml in 8 mm paper disks, Trypticasesoy-broth-agar, read-out: Inhibition diameter
Experimental: as §1, §2, §3, §4, §5

[12] = test system: Staphylococcus aureus FDA 209P; test: Antimicrobial spectrum, paper disk method; type: cell-based; conditions: FDA209P, 25 μl of 10 mg/ml in 8 mm paper disks, Trypticasesoy-broth-agar, read-out: Inhibition diameter
Experimental: as §1, §2, §3, §4, §5

gram-positive bacteria = test: Antibacterial activity against gram-positive bacteria; type: cell-based; conditions: paper disk method, Table 2
Experimental: as §1, §2, §3, §4, §5

gram-negative bacteria = test: Antibacterial activity against gram-negative bacteria; type: cell-based; conditions: paper disk method, Table 2
Experimental: as §1, §2, §3, §4, §5

[13] = Basicity, neutrality or acidity; type: physicochemical
[14] = aqueous solution, pH 3 to 7, 60° C., 10 minute heating

Structure (SMILES) | Solubility in solvents (Solubility in solvents; acetone) | Solubility in solvents (Solubility in solvents; benzene) | Solubility in solvents (Solubility in solvents; chloroform) | Solubility in solvents (Solubility in solvents; diethyl ether) | Solubility in solvents (Solubility in solvents; dimethylsulfoxide) | Solubility in solvents (Solubility in solvents; ethanol) | Solubility in solvents (Solubility in solvents; ethyl acetate) | Solubility in solvents (Solubility in solvents; hexane) | Solubility in solvents (Solubility in solvents; methanol) | Solubility in solvents (Solubility in solvents; petroleum ether) | Solubility in solvents (Solubility in solvents; pyridine) | Solubility in solvents (Solubility in solvents; water) | Stability [1, 14] | Stability ([1]; over pH 8.5) | other results
COC1(NC(=O)C(C)NC(=O)CCC(N)C(=O)O)CN(S(=O)(=O)O)C1=O (stereo not shown) [SB-72310 sodium salt] | Insoluble | Insoluble | Insoluble | Insoluble | soluble | sparingly soluble | Insoluble | Insoluble | sparingly soluble | Insoluble | sparingly soluble | readily soluble | Stable | unstable | Acute toxicity (mice): low; Deaths (mice; 500 mg/kg): no deaths
COC1(NC(=O)C(C)NC(=O)CCC(N)C(=O)O)CN(S(=O)(=O)O)C1=O (stereo not shown) [SB-72310] | sparingly soluble | Insoluble | Insoluble | Insoluble | soluble | sparingly soluble | Insoluble | Insoluble | soluble | Insoluble | sparingly soluble | readily soluble | Stable | unstable | zone of inhibition at 10000 µg/mL [2]: 23 mm; zone of inhibition at 10000 µg/mL (Bacillus cereus IFO 3466): 14.5 mm; zone of inhibition at 10000 µg/mL [3]: 22 mm; zone of inhibition at 10000 µg/mL [4]: 25 mm; zone of inhibition at 10000 µg/mL [5]: 14.5 mm; zone of inhibition at 10000 µg/mL [6]: 12.5 mm; zone of inhibition at 10000 µg/mL [7]: 19 mm; zone of inhibition at 10000 µg/mL [8]: 18 mm; zone of inhibition at 10000 µg/mL [9]: 12.5 mm; zone of inhibition at 10000 µg/mL [10]: 18.5 mm; zone of inhibition at 10000 µg/mL (Sarcina lutea IFO 3232): 23 mm; zone of inhibition at 10000 µg/mL [11]: 17 mm; zone of inhibition at 10000 µg/mL [12]: 18.5 mm; Activity against gram-positive bacteria (gram-positive bacteria): active; Activity against gram-negative bacteria (gram-negative bacteria): active; Basicity, neutrality or acidity [13]: Acid
